Entries after “also recorded” stand apart in the source; their conditions may differ.
Experiments:
Format in all cases: physicochemical
[1] = Variable temperature and humidity XRPD (VT-/VH-XRPD)
Experimental: VT-/VH-XRPD analysis was carried out on a Philips X'Pert ProMultipurpose diffractometer equipped with a temperature and humidity chamber. The samples were scanned between 4 and 35.99° 2θ using Cu K radiation (α1λ=1.54060 Å; α2=1.54443 Å; β=1.39225 Å; α1:α2 ratio=0.5) running in Bragg-Brentano geometry (step size 0.008° 2θ) using 40 kV/40 mA generator settings. Measurements were performed at each step of the humidity profile below:
Program: 40% RH/ambient temperature—initial scan
• 0% RH/ambient temperature—initial scan, 1-hour hold, scan • 0% RH/80° C.—initial scan, 20-minute hold, scan • 0% RH/80° C.—initial scan, 80-minute hold, scan 11. High Performance Liquid Chromatography-Ultraviolet Detection (HPLC-UV) Instrument: Dionex Ultimate 3000 Column: LC/168 X-Bridge Phenyl Column (150 mm×4.6 mm×3.5 μm) Column Temperature: 30° C. Autosampler Temperature: 5° C. UV wavelength: 220 nm Injection Volume: 5 μL Flow Rate: 1 ml/min Mobile Phase A: 10 mM Ammonium acetate Mobile Phase B: Acetonitrile Diluent: 0.1% TFA in water Gradient program: […]

[2] = Solubility of CHP hydrate (Pattern 2) in water/acetone
[3] = GMP stability study of CHP anhydrate and CHP hydrate under accelerated conditions (total impurities); conditions: for Growth of total Impurities: 40 °C/75% RH
Experimental: CHP anhydrate (Pattern 1) and hydrate (Pattern 2) compounds were manufactured under GMP conditions. A stability study for the CHP anhydrate compound was conducted under ccelerated conditions (40±5° C./75±5% RH) for six months and room temperature conditions (25±5° C./60±5% RH) for 12 months. A further stability study for the CHP hydrate compound was conducted under accelerated conditions (40±5° C./75±5% RH) for 6 months (Table 18).

[4] = Drug substance stability study, 25±2 °C/60±5% RH (appearance, assay, impurities, chiral, water content, XRPD); conditions: 25° C./60% RH (table title)
Experimental: Packaging: Sample at each individual time point was packaged into double Antistatic LDPE bags both secured with cable ties. The sample packed for the same storage condition were stored together within a fiber drum, and closed with metal lid. All packages were prepared in the same fashion and labeled.
Time zero will be the day samples are placed on station. Initial testing results were from the release testing as long as samples are put on station within 30 days of the release test date, otherwise, initial was repeated.
Study Requirements: Total 22.5 g sample (Total 21 g sample if initial test is not needed): • 1.5 g for initial test if needed; • 21 g sample will be divided into 14 parts, 1.5 g for each parts, sample for each part should be weighed into double Antistatic LDPE bags both secured with cable ties. The stability samples for each storage condition are stored together within a fiber drum, closed with metal lid, and then stored at 25±2° C./60+5% RH (9 bags) and 40±2° C./75±5% RH (5 bags), respectively. Sampling Time:
Samples stored not more than 6 months were pulled on schedule date or within 2 business days after the scheduled date. Samples stored more than 6 months were pulled within +2 business days of the scheduled date.
Stability samples stored for one month to one year, and greater than one year were analyzed and completed within 10 and 20 business days after the samples pulled out from stability chamber, respectively. If time zero testing was performed, it was analyzed within 10 business days after study initiation.

[5] = Dry stability at 35, 40, 50 and 65 °C (XRPD)
Experimental: Drying stability was carried out at 35° C., 40° C., 50° C., and 65° C. respectively.

[6] = Vacuum oven heating of Pattern 2 (XRPD)
Experimental: i. 80° C. Heating of Pattern 2 • Ca. 2.2 g of pattern 2 material (prepared as per Section 5.6.1) was placed inside a vacuum oven set to 50° C.; • After 1 hour, a sample was taken and analyzed by XRPD; • Vial was returned to the vacuum oven and the temperature increased to 60° C.; • After 30 minutes, a sample was taken and analyzed by XRPD; • Vial was returned to the vacuum oven and the temperature increased to 80° C.; • After 18 hours at 80° C., a sample was taken and analyzed by XRPD; ii. Fast Rotary Evaporation in Ethanol/DCM • 1 g of received CHP pattern 1 was weighed in to a round bottom flask and dissolved in 40 mL of ethanol; • Once the solid had dissolved, 2 mL of dichloromethane was pipetted into the flask; • The flask was then attached to a rotary evaporator and fast evaporated at ambient temperature under vacuum; • A pale beige solid was recovered an analyzed by XRPD. 7. pH Solubility Assessment

- VT/VH-XRPD Identity ([1]; Run 1: 40% RH, ambient temperature, listed as CHP Pattern 2): Pattern 2
- VT/VH-XRPD Identity ([1]; Run 2: 0% RH, ambient temperature, 1-hour hold, listed as CHP Pattern 2): Pattern 2
- VT/VH-XRPD Identity ([1]; Run 2: 0% RH, ambient temperature, 1-hour hold, listed as CHP pattern 2): Pattern 2 input material remained
- VT/VH-XRPD Identity ([1]; Run 3: 0% RH, 80 °C, 20-minute hold, listed as CHP Pattern 2): Pattern 1
- VT/VH-XRPD Identity ([1]; Run 4: 0% RH, 80 °C, 80-minute hold): pure Pattern 1 remained
- VT/VH-XRPD Identity ([1]; Run 4: 0% RH, 80 °C, 80-minute hold, listed as CHP Pattern 2): Pattern 1
- VT/VH-XRPD Identity ([1]; Run 4: 0% RH, 80 °C, 80-minute hold, listed as CHP pattern 2): Pure pattern 1 remained
- solubility ([2]; water/acetone 0/10 (v/v), 50 °C, organic solvent or mixture): 14 mg/mL
- solubility ([2]; water/acetone 0.5/9.5 (v/v), 50 °C, organic solvent or mixture): 49 mg/mL
- solubility ([2]; water/acetone 1/9 (v/v), 5 °C, organic solvent or mixture): 48 mg/mL
- solubility ([2]; water/acetone 1/9 (v/v), 50 °C, organic solvent or mixture): 159 mg/mL
- solubility ([2]; water/acetone 2/8 (v/v), 5 °C, organic solvent or mixture): 110 mg/mL
- solubility ([2]; water/acetone 4/6 (v/v), 5 °C, organic solvent or mixture): 179 mg/mL
- solubility ([2]; water/acetone 6/4 (v/v), 5 °C, aqueous with cosolvent or surfactant or cyclodextrin): 206 mg/mL
- solubility ([2]; water/acetone 8/2 (v/v), 5 °C, aqueous with cosolvent or surfactant or cyclodextrin): > 200 mg/mL
- solubility ([2]; water/acetone 9/1 (v/v), 5 °C, aqueous with cosolvent or surfactant or cyclodextrin): 215 mg/mL
- solubility ([2]; water/acetone, 5 °C, organic solvent or mixture, water/acetone 0/10 (v/v)): 17 mg/mL
- solubility ([2]; water/acetone, 5 °C, organic solvent or mixture, water/acetone 0.5/9.5 (v/v)): 19 mg/mL
- solubility ([2]; water/acetone, 50 °C, aqueous with cosolvent or surfactant or cyclodextrin, water/acetone 6/4 (v/v)): > 200 mg/mL
- solubility ([2]; water/acetone, 50 °C, aqueous with cosolvent or surfactant or cyclodextrin, water/acetone 8/2 (v/v)): > 200 mg/mL
- solubility ([2]; water/acetone, 50 °C, aqueous with cosolvent or surfactant or cyclodextrin, water/acetone 9/1 (v/v)): > 200 mg/mL
- solubility ([2]; water/acetone, 50 °C, organic solvent or mixture, water/acetone 2/8 (v/v)): > 200 mg/mL
- solubility ([2]; water/acetone, 50 °C, organic solvent or mixture, water/acetone 4/6 (v/v)): > 200 mg/mL
- Growth of total Impurities ([3]; 0M): 0%
- Growth of total Impurities ([3]; 1M): 0%
- Growth of total Impurities ([3]; 3M, listed as CHP hydrate (pattern 2)): 0.00%
- Growth of total Impurities ([3]; 6M, listed as CHP hydrate (pattern 2)): 0.05%
- Quality changes during stability study ([3]; accelerated conditions for 6 months): no significant quality changes
- Appearance ([4]; 3M): Off-white powder
- Assay by HPLC ([4]; 3M): 103.3%
- Chiral, HPLC: chiral purity ([4]; 3M): 100.0%
- Impurities, HPLC: H-His-OH ([4]; 3M): 0.08%
- Impurities, HPLC: each other individual (unspecified) impurity ([4]; 3M): individual <0.05%
- Water content (KF) ([4]; 3M): 7.1%
- Appearance ([4]; 6M): Off-white powder
- Assay by HPLC ([4]; 6M): 103.4%
- Chiral, HPLC: chiral purity ([4]; 6M): 100.0%
- Impurities, HPLC: H-His-OH ([4]; 6M): 0.08%
- Impurities, HPLC: each other individual (unspecified) impurity ([4]; 6M): individual <0.05%
- Water content (KF) ([4]; 6M): 7.2%
- Appearance ([4]; Initial): Off-white powder
- Assay by HPLC ([4]; Initial): 103.4%
- Chiral, HPLC: chiral purity ([4]; Initial): 100.0%
- Impurities, HPLC: H-His-OH ([4]; Initial): 0.07%
- Impurities, HPLC: each other individual (unspecified) impurity ([4]; Initial): individual <0.05%
- Water content (KF) ([4]; Initial): 7.4%
- XRPD ([4]; Initial, vs reference standard of Pattern 2 (PS03027-15-H)): Conform to reference
- Drying stability (form) ([5]; drying at 35-65 °C, up to 4 days): stable up to 40 °C for at least 4 days
- XRPD ([5]; drying at 35 °C, 1 d): Pattern 2
- XRPD ([5]; drying at 35 °C, 4 d): Pattern 2
- XRPD ([5]; drying at 40 °C, 1 d): Pattern 2
- XRPD ([5]; drying at 40 °C, 2 d): Pattern 2
- XRPD ([5]; drying at 40 °C, 3 d): Pattern 2
- XRPD ([5]; drying at 40 °C, 4 d): Pattern 2
- XRPD ([5]; drying at 50 °C, 1 d): Pattern 2
- XRPD ([5]; drying at 50 °C, 2 d): Pattern 2
- XRPD ([5]; drying at 50 °C, 4 d): Pattern 1
- XRPD ([5]; drying at 65 °C, 1 d): Pattern 2
- XRPD ([5]; drying at 65 °C, 2 d): Pattern 1
- Drying stability (form) ([5]; lab oven under −0.09 MPa): stable at below 40 °C
- XRPD form after heating ([6]; oven 80 °C, additional 18 hours): mixture of Pattern 1 and 2
SMILES: O=C1N[C@@H](Cc2cnc[nH]2)C(=O)N2CCC[C@@H]12 [Pattern 2, Pyrrolo [1,2-a]pyrazine-1,4-dione, hexahydro-3-(1H-imidazol-5-ylmethyl)-, hydrate (1:1), (3S, 8aS)-]
- VT/VH-XRPD Identity ([1]; Run 1: 40% RH, ambient temperature): stable; also recorded: Pattern 2 was present
- VT/VH-XRPD Identity ([1]; Run 2: 0% RH, ambient temperature, 1-hour hold): remains as Pattern 2; also recorded: Pattern 2 remained
- VT/VH-XRPD Identity ([1]; Run 3: 0% RH, 80 °C, 20-minute hold): converted Pattern 2 to Pattern 1; also recorded: pure Pattern 1
- VT/VH-XRPD Identity ([1]; Run 3: 0% RH, 80 °C, 20-minute hold, listed as CHP pattern 2): changed form which was assigned as pure pattern 1
- XRPD form after heating ([6]; vacuum oven 50 °C, 1 hour): predominately Pattern 2 with some Pattern 1 peaks
- XRPD form after heating ([6]; vacuum oven, further 30 minutes (1.5 hour in total)): predominantly Pattern 2 with some Pattern 1 peaks

— US12534496B2, “Polymorphic forms of Cyclo (-His-Pro) and methods of use to treat kidney disease” (NovMetaPharma Co., Ltd., priority 2018, dated 2026)
